The target in one data set is T1, FES (Homo sapiens, UniProt P07332).
T1 construct: purchased in-house DSF (thermal shift) panel per Fedorov et al; IC50 follow-up at Reaction Biology Corp
In words: DSF thermal shift assay. The following applies: inhibitor 10 μM, protein 2 μM. Format: binding. The procedure:
(§1) Differences in the melting temperature (ΔTm) were measured as described by Fedorov et al.. Purified proteins were buffered in 25 mM HEPES (pH 7.5), 500 mM NaCl and were assayed in a 384-well plate with a final protein concentration of 2 μM in 10 μL assay volume. Inhibitors were added to a final concentration of 10 μM using an ECHO 550 acoustic dispenser (Labcyte, San José, CA, USA). As a fluorescence probe, SYPRO-Orange (Molecular Probes, Eugene, OR, USA) was added in a 1:5000 dilution. […] Data were analyzed through Boltzmann equation in the Protein Thermal Shift software (Applied Biosystems, Waltham, MA, USA). Samples were measured in technical duplicates.

Another data set has as its target T2, PDK4 (Homo sapiens, UniProt Q16654).
T2 construct: purchased in-house DSF (thermal shift) panel per Fedorov et al; IC50 follow-up at Reaction Biology Corp
Description: DSF thermal shift assay. Format: binding. The following applies: inhibitor 10 μM, protein 2 μM. How it is done: as §1

The next data set deals with T3, STK6 (Homo sapiens, UniProt O14965).
T3 construct: purchased in-house DSF (thermal shift) panel per Fedorov et al; IC50 follow-up at Reaction Biology Corp
In words: DSF thermal shift assay. Format: binding. The following applies: inhibitor 10 μM, protein 2 μM. The procedure: as §1

The target in a further data set is T4, NEK1 (Homo sapiens, UniProt Q96PY6).
T4 construct: purchased in-house DSF (thermal shift) panel per Fedorov et al
Description: DSF thermal shift assay. Format: binding. The following applies: inhibitor 10 μM, protein 2 μM. How it is done: as §1

In another data set the target is T5, CHEK2 (Homo sapiens, UniProt O96017).
T5 construct: purchased in-house DSF (thermal shift) panel per Fedorov et al; IC50 follow-up at Reaction Biology Corp
Description: DSF thermal shift assay. The class given is binding. The following applies: inhibitor 10 μM, protein 2 μM. The procedure: as §1

Another data set deals with T6, FLT1 (Homo sapiens, UniProt P17948).
T6 construct: purchased in-house DSF (thermal shift) panel per Fedorov et al
In words: DSF thermal shift assay. The class given is binding. Particulars: inhibitor 10 μM, protein 2 μM. How it is done:
as §1

A short description of another data set: physchem. The following applies: buffer.
The next data set is described as follows: Microsomal stability. The following applies: 100 μM, NADPH-regenerating system, up to 90 min. Format: in vitro ADME, mouse. The procedure:
Pooled liver microsomes from mice (male) were purchased from XenoTech LLC (Sekisui XenoTech LLC, Kansas City, KS, USA). Incubation of compound 2 was made in the presence of an NADPH-regenerating system (5 mM glucose-6-phosphate, 5 U/mL glucose-6-phosphate dehydrogenase, and 1 mM NADP^+). Compound 2 (100 μM), the NADPH-regenerating system, and 4 mM MgCl2⋅6 H2O in 0.1 M Tris buffer (pH 7.4) were preincubated for 5 min at 37 °C and 750 rpm on a shaker. The incubation mix was split into aliquots (50 μL) and the reaction was started by the addition of mouse liver microsomes. The reaction was quenched at selected time points (0, 10, 20, 30, 60, and 90 min) by adding 100 μL internal standard at a concentration of 50 μM in MeCN. The samples were vortexed for 30 s and centrifuged (19,800 relative centrifugal force/4 °C/15 min). The supernatant was directly used for LC-MS analysis. All incubations were conducted in triplicates and a limit of 1% organic solvent was not exceeded. […]
Detection was performed on a Micromass Quattro micro triple quadrupole mass spectrometer (Waters GmbH, Eschborn, Germany) using electrospray ionization in positive mode. […] The data were analyzed using MassLynx 4.1 (Waters Corporation, Milford, MA, USA)

T4 sequence (Q96PY6 whole entry): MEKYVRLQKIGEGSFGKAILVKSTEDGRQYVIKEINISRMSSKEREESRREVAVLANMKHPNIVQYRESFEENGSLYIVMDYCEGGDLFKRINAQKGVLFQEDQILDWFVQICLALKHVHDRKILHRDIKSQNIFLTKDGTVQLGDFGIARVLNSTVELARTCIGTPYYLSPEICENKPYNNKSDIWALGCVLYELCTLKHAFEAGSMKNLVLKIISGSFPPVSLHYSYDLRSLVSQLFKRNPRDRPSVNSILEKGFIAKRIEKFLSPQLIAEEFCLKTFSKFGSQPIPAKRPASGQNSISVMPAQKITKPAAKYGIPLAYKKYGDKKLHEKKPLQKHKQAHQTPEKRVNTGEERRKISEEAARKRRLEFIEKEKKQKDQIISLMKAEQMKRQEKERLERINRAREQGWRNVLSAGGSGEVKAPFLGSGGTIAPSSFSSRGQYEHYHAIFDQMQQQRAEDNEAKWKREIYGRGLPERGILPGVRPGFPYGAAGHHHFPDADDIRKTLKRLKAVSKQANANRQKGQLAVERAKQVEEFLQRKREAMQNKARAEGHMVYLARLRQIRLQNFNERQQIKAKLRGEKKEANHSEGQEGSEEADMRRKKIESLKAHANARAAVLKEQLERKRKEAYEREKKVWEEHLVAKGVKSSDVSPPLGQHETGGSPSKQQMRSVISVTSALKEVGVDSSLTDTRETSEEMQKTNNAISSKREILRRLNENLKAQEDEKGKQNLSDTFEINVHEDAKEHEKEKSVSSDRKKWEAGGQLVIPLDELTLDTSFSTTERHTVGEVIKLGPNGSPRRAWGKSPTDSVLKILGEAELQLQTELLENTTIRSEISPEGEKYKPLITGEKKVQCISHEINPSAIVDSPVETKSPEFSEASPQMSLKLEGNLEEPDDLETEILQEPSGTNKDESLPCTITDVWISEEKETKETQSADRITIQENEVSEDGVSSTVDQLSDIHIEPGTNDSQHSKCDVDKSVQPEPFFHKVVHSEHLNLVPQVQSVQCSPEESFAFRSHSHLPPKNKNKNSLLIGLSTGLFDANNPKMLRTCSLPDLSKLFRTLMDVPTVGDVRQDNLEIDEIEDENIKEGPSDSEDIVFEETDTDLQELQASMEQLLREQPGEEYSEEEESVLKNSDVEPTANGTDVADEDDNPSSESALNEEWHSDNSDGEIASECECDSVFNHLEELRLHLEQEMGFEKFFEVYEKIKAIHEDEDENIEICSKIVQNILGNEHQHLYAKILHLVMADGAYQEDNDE
T3 sequence (O14965 whole entry): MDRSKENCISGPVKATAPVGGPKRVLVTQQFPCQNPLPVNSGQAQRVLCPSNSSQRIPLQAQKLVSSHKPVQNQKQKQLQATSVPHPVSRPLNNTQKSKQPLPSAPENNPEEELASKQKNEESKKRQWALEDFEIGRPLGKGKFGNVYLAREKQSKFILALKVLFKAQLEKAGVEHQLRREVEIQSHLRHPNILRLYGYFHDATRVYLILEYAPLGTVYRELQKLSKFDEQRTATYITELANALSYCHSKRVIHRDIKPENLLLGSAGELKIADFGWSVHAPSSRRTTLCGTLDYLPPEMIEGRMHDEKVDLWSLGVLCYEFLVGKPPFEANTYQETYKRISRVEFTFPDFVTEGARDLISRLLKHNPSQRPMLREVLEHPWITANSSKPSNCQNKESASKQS
T1 sequence (P07332 whole entry): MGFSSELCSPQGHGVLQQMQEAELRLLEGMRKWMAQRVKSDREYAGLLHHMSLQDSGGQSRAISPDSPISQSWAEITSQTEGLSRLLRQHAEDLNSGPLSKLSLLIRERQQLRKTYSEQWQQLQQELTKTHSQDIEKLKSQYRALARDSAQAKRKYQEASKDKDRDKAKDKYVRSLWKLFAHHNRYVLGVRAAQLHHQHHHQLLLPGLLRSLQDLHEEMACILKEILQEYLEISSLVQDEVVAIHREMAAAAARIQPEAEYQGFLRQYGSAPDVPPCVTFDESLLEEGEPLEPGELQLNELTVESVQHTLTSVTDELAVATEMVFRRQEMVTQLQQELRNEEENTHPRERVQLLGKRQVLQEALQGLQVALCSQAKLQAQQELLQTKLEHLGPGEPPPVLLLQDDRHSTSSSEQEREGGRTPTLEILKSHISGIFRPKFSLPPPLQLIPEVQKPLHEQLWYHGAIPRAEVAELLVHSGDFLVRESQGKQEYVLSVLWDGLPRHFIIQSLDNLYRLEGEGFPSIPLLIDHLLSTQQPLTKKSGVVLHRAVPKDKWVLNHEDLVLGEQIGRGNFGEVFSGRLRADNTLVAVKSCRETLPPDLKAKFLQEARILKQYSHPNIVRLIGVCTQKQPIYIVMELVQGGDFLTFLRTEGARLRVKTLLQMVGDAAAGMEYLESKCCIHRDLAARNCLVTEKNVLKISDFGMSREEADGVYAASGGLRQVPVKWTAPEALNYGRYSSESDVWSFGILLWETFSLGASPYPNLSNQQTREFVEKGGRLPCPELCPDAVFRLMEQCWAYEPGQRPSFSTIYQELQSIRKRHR
T5 sequence (O96017 whole entry): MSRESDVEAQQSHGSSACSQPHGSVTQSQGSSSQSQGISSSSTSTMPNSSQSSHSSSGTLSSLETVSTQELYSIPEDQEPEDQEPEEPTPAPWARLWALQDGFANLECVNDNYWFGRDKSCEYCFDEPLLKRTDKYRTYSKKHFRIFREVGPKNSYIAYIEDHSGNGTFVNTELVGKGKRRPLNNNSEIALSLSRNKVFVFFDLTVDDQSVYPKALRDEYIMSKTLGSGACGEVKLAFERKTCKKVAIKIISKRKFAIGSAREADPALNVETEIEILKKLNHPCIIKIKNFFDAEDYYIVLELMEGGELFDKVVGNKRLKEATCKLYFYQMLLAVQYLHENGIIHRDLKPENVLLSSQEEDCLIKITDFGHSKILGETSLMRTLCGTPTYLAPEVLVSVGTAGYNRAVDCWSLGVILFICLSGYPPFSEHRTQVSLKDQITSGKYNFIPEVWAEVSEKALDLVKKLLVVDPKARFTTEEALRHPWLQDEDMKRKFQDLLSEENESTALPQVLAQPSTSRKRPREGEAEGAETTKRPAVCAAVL
T6 sequence (P17948 27-1338): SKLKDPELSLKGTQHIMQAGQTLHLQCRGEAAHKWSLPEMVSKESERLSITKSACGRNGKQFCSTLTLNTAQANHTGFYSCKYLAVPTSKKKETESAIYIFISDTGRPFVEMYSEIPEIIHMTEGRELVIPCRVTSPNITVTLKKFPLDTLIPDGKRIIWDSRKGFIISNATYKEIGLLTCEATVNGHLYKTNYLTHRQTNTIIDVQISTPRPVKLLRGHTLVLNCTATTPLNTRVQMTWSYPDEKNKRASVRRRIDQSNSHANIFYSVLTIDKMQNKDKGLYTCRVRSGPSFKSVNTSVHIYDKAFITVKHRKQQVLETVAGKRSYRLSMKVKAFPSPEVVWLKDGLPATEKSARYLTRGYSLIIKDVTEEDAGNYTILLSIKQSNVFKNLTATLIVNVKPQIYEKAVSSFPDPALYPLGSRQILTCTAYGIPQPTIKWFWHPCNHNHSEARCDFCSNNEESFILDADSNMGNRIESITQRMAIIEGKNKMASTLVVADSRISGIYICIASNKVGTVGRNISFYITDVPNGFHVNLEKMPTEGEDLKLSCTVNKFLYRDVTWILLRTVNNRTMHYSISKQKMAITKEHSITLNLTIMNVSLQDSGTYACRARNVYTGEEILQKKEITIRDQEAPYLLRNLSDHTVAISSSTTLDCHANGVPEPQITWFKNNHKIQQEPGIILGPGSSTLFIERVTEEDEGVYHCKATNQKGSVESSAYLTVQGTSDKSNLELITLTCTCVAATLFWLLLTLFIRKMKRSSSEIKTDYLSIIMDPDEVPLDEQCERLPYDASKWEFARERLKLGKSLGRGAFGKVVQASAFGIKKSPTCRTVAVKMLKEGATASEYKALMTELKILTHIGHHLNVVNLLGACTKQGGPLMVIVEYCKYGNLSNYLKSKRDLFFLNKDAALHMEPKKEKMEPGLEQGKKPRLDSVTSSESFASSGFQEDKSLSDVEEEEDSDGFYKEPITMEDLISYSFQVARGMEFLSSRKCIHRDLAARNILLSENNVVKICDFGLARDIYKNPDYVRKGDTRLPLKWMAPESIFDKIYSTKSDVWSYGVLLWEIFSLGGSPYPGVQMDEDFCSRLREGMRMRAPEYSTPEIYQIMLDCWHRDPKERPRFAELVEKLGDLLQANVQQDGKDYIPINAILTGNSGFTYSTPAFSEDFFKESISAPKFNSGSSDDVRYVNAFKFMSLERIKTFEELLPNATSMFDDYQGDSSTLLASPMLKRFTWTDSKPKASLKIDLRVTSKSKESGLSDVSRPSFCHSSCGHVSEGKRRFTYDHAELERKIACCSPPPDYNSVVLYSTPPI
T2 sequence (Q16654 whole entry): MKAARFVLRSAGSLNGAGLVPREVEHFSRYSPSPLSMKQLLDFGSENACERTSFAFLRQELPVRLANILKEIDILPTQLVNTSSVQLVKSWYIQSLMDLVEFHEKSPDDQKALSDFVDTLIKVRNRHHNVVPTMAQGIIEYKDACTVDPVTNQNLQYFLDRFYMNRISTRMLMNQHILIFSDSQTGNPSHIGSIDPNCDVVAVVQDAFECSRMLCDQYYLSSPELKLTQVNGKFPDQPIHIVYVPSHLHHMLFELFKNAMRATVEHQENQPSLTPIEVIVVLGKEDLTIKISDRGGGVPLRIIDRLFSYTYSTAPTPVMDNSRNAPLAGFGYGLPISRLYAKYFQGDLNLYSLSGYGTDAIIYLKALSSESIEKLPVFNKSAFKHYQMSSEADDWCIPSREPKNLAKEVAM
Description for physchem: The reaction temperature was chosen to be 40 °C.
Glutathione (GSH) Stability Assay
• 0 min: 40% MeOH, 60% phosphate buffer pH 2.3;
• 20 min: 85% MeOH, 15% phosphate buffer pH 2.3;
• 9 min: 95% MeOH, 5% phosphate buffer pH 2.3;
• 10 min: 95% MeOH, 5% phosphate buffer pH 2.3;

What is called ΔTm is the shift of the melting midpoint relative to a reference. Usually half-life stands for the time in which the quantity being followed falls by half. A high value points to slow decline. `CCc1cnc(Nc2nc(Cl)ccc2[N+](=O)[O-])nc1N1CCN(Cc2nc3cc(C(F)(F)F)ccc3[nH]2)CC1` [Compound 2]: the ΔTm at 10 µM is 0 °C on FES; -0.1 °C on PDK4; 0.2 °C on STK6; -0.7 °C at NEK1; 0.4 °C on CHEK2; 0.1 °C at FLT1. Besides, the half-life at […] in “physchem” was 55 h. For the same compound, in the data set “Microsomal stability”, the “stability in mouse liver microsomes” value is reported as “acceptable stability”.

The values above are taken from paper PMC8534050, “Discovery of a Potent and Highly Isoform-Selective Inhibitor of the Neglected Ribosomal Protein S6 Kinase Beta 2 (S6K2)” (Cancers, 2021).
